Source: patent US6720346B2, “Thiazole benzamide derivatives and pharmaceutical compositions for inhibiting cell proliferation” (Agouron Pharmaceuticals, Inc., priority 2001, dated 2004)

Experiments:
[1] = biological target: T1, human CDK4/cyclin D3 (Homo sapiens, UniProt P11802); assay: Inhibition of CDK4/cyclin D retinoblastoma kinase activity (Ki; % inhibition); type: biochemical; conditions: at 0.03 μM
T1 construct: made in house; host or cells: insect cells co-infected with baculovirus vectors
T1 sequence (P11802 whole entry): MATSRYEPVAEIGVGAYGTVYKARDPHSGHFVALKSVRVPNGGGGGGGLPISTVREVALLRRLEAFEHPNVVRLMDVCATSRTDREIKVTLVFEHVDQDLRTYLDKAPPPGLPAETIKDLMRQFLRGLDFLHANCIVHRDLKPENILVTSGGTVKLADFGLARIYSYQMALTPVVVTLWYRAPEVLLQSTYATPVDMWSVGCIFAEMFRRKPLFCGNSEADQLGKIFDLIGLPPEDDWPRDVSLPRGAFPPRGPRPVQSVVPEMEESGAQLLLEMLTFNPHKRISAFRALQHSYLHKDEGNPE
T1 sequence (P30281 1-264 partner limits assumed): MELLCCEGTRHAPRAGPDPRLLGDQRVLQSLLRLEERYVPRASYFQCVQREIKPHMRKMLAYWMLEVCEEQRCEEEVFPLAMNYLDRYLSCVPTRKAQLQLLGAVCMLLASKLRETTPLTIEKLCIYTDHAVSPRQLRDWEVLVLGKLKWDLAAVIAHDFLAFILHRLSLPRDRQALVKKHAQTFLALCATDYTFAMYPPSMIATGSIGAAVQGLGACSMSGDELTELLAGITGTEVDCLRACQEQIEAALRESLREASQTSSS
How it was run: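 Radiometric filter-binding read-out: Rb residues 386-928 phosphorylated by 5 nM CDK4/cyclin D3(1-264) from baculovirus-infected insect cells, 25 μM ATP, HEPES pH 7.4, 30 °C. Run 20 min, or 60 min for tight-binding inhibitors. Screening at 30 nM theoretical compound; apparent Ki by competitive-inhibition fitting.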

[2] = tested on: HCT-116 cell line; assay: Inhibition of cell growth, MTT tetrazolium salt assay; type: cell-based; conditions: HCT-116, at 0.25 μM
How it was run: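 Growth inhibition was read as MTT-formazan absorbance at 540 nm, after 4 h with 0.2 mg/mL MTT. Before that, HCT-116 cells had been exposed 3–5 days at 37 °C to compounds in 0.5% (v/v) DMSO, added 4 h after plating. 50% and 90% inhibitory concentrations were taken from semi-log concentration–inhibition plots versus vehicle controls.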

[3] = biological target: T2, CDK2/cyclin A (Homo sapiens, UniProt P24941); assay: Inhibition of CDK2/cyclin A retinoblastoma kinase activity (Ki; % inhibition); type: biochemical; conditions: at 0.03 μM
T2 construct: made in house; host or cells: CDK2: insect cells (baculovirus); cyclin A: E. coli
How it was run: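 Apparent Ki values came from fitting concentration-dependent activity data to competitive (or competitive tight-binding) models, and % inhibition from single 30 nM screens of library compounds. Activity was measured as ³²P/³³P incorporation from 25 μM ATP into an Rb substrate by 10 or 19 nM CDK2/delta cyclin A at 30 °C over 60–75 min, pH 7.4.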

Row | Structure (SMILES) | CDK4 % Inhibition at 0.03 μM [1] [%] | HCT-116 % Inhibition at 0.25 μM [2] [%] | CDK2 % Inhibition at 0.03 μM [3] [%]
1 | CN(Cc1ccccc1)C(=O)c1ccc(Nc2nc(N)c(C(=O)c3c(F)cccc3F)s2)cc1 [Example G3] | 4 | 50 | −1
2 | CCCCN(CCO)C(=O)c1ccc(Nc2nc(N)c(C(=O)c3c(F)cccc3F)s2)cc1 [Example G4] | 4 | 53 | −7
3 | CN(C)C(=O)CN(C)C(=O)c1ccc(Nc2nc(N)c(C(=O)c3c(F)cccc3F)s2)cc1 [Example G5] | −3 | 47 | −23
4 | NC(=O)c1cccc(NC(=O)c2ccc(Nc3nc(N)c(C(=O)c4c(F)cccc4F)s3)cc2)c1 [Example G6] | 10 | 47 | −1
5 | Nc1nc(Nc2ccc(C(=O)Nc3ccccc3)cc2)sc1C(=O)c1c(F)cccc1F [Example G7] | 5 | 80 | 4
6 | Cc1ccc(NC(=O)c2ccc(Nc3nc(N)c(C(=O)c4c(F)cccc4F)s3)cc2)cc1Cl [Example G8] | −5 | 50 | −1
7 | CCCCN(CC#N)C(=O)c1ccc(Nc2nc(N)c(C(=O)c3c(F)cccc3F)s2)cc1 [Example G9] | 2 | 46 | −1
8 | Nc1nc(Nc2ccc(C(=O)N3CCOCC3)cc2)sc1C(=O)c1c(F)cccc1F [Example G10] | −2 | 51 | −4
9 | CN(CCc1ccccc1)C(=O)c1ccc(Nc2nc(N)c(C(=O)c3c(F)cccc3F)s2)cc1 [Example G11] | 6 | 49 | −12
10 | Nc1nc(Nc2ccc(C(=O)N3CCN(CCCO)CC3)cc2)sc1C(=O)c1c(F)cccc1F [Example G12] | 10 | 48 | −14
11 | COCCN(C)C(=O)c1ccc(Nc2nc(N)c(C(=O)c3c(F)cccc3F)s2)cc1 [Example G13] | 0 | 44 | −16
12 | COc1ccc(NC(=O)c2ccc(Nc3nc(N)c(C(=O)c4c(F)cccc4F)s3)cc2)cc1O [Example G14] | 26 | 50 | 9
13 | Cc1cccc(Cl)c1NC(=O)c1ccc(Nc2nc(N)c(C(=O)c3c(F)cccc3F)s2)cc1 [Example G15] | 4 | 46 | −12
14 | CCOc1cccc(NC(=O)c2ccc(Nc3nc(N)c(C(=O)c4c(F)cccc4F)s3)cc2)c1 [Example G16] | 1 | 50 | −7
15 | CN(CCO)C(=O)c1ccc(Nc2nc(N)c(C(=O)c3c(F)cccc3F)s2)cc1 [Example G17] | 7 | 45 | 2
16 | CC1CN(C(=O)c2ccc(Nc3nc(N)c(C(=O)c4c(F)cccc4F)s3)cc2)CC(C)O1 (stereo not drawn) [Example G18] | 4 | 41 | −10
17 | COC(CN(C)C(=O)c1ccc(Nc2nc(N)c(C(=O)c3c(F)cccc3F)s2)cc1)OC [Example G19] | 4 | 43 | −7
